Literature values, collected in patent publication US10835570B2, “Dietary supplement” (priority 2016, dated 2020).

Test system: receptors ERb and ERa
Conditions: oestrogen-like affinity, ERb versus ERa

affinity greater for receptors ERb than for receptors ERa: 20 times
Compound: O=c1c(-c2ccc(O)cc2)coc2cc(O)cc(O)c12 [genistein]
